Measurements published in US20260027239A1, “cRGD -CONJUGATED IMAGING AGENT” (Curadel Surgical Innovations, Inc., priority 2022, published 2026).

How the values were obtained:
[1] = Stability of cRGD in serum; assay type: in vitro ADME
[2] = Stability in warm buffered fetal bovine serum (normalized absorbance and absorbance spectra over time); assay type: in vitro ADME; details: 37° C. buffered FBS
Procedure: The normalized absorbance of ZW800-1 and ZW700-1c in 37° C. buffered FBS, pH 7.4 over time from 0 to 60 hours are shown in FIGS. 2-4.

SMILES | stability in serum [1] | stability, changes in absorption spectra during metabolism in warm serum ([2]; pH 7.4, 0 to 48 hours, compared to ZW800-1 (FIGS. 5-6)) | stability, normalized absorbance over time ([2]; pH 7.4, 0 to 60 hours, compared to ZW800-1 (FIGS. 2-4))
N=C(N)NCC[C@@H]1NC(=O)[C@H](CCCCN)NC(=O)[C@@H](Cc2ccc(O)cc2)NC(=O)[C@H](C(=O)O)NC(=O)CNC1=O [cRGD] | stable in serum for days |  | 
CC1(C)C(/C=C/C(=C/C=C2/N(CCC[N+](C)(C)C)c3ccc(S(=O)(=O)[O-])cc3C2(C)C)c2ccc(CCC(=O)[O-])cc2)=[N+](CCC[N+](C)(C)C)c2ccc(S(=O)(=O)[O-])cc21 [ZW700-1c] |  | high stability | extreme stability
